Experimental data taken from the NIST ThermoML archive (doi:10.1021/acs.jced.9b00396).

Settings: Liquid; for speed of sound: Frequency=3 MHz, Single path-length method; for mass density: Vibrating tube method

C[S+](C)[O-] [dimethyl sulfoxide]
Settings | mass density [kg/m3] | speed of sound [m/s]
293.15 K, 100 kPa | 1100.4 | 1502
293.15 K, 500 kPa | 1100 | –
293.15 K, 1000 kPa | 1101 | –
293.15 K, 2500 kPa | 1102 | –
293.15 K, 5000 kPa | 1103 | –
293.15 K, 7500 kPa | 1104 | –
293.15 K, 10000 kPa | 1106 | –
293.15 K, 12500 kPa | 1107 | –
293.15 K, 15000 kPa | 1108 | –
293.15 K, 17500 kPa | 1110 | –
293.15 K, 20000 kPa | 1111 | –
293.15 K, 22500 kPa | 1112 | –
293.15 K, 25000 kPa | 1114 | –
293.15 K, 27500 kPa | 1115 | –
293.15 K, 30000 kPa | 1116 | –
293.15 K, 32500 kPa | 1117 | –
293.15 K, 35000 kPa | 1119 | –
293.15 K, 37500 kPa | 1120 | –
298.15 K, 100 kPa | 1095.4 | 1485
298.15 K, 500 kPa | 1095 | –
298.15 K, 1000 kPa | 1096 | –
298.15 K, 2500 kPa | 1096 | –
298.15 K, 5000 kPa | 1098 | –
298.15 K, 7500 kPa | 1099 | –
298.15 K, 10000 kPa | 1101 | –
298.15 K, 12500 kPa | 1102 | –
298.15 K, 15000 kPa | 1103 | –
298.15 K, 17500 kPa | 1105 | –
298.15 K, 20000 kPa | 1106 | –
298.15 K, 22500 kPa | 1107 | –
298.15 K, 25000 kPa | 1109 | –
298.15 K, 27500 kPa | 1110 | –
298.15 K, 30000 kPa | 1111 | –
298.15 K, 32500 kPa | 1113 | –
298.15 K, 35000 kPa | 1114 | –
298.15 K, 37500 kPa | 1115 | –
313.15 K, 100 kPa | 1080.3 | 1435
313.15 K, 500 kPa | 1080 | –
313.15 K, 1000 kPa | 1080 | –
313.15 K, 2500 kPa | 1081 | –
313.15 K, 5000 kPa | 1083 | –
313.15 K, 7500 kPa | 1084 | –
313.15 K, 10000 kPa | 1086 | –
313.15 K, 12500 kPa | 1087 | –
313.15 K, 15000 kPa | 1089 | –
313.15 K, 17500 kPa | 1090 | –
313.15 K, 20000 kPa | 1092 | –
313.15 K, 22500 kPa | 1093 | –
313.15 K, 25000 kPa | 1095 | –
313.15 K, 27500 kPa | 1096 | –
313.15 K, 30000 kPa | 1097 | –
313.15 K, 32500 kPa | 1099 | –
313.15 K, 35000 kPa | 1100 | –
313.15 K, 37500 kPa | 1101 | –
333.15 K, 100 kPa | 1060.2 | 1368
333.15 K, 500 kPa | 1060 | –
333.15 K, 1000 kPa | 1060 | –
333.15 K, 2500 kPa | 1061 | –
333.15 K, 5000 kPa | 1063 | –
333.15 K, 7500 kPa | 1065 | –
333.15 K, 10000 kPa | 1066 | –
333.15 K, 12500 kPa | 1068 | –
333.15 K, 15000 kPa | 1070 | –
333.15 K, 17500 kPa | 1071 | –
333.15 K, 20000 kPa | 1073 | –
333.15 K, 22500 kPa | 1074 | –
333.15 K, 25000 kPa | 1076 | –
333.15 K, 27500 kPa | 1077 | –
333.15 K, 30000 kPa | 1079 | –
333.15 K, 32500 kPa | 1080 | –
333.15 K, 35000 kPa | 1082 | –
333.15 K, 37500 kPa | 1083 | –
353.15 K, 500 kPa | 1040 | –
353.15 K, 1000 kPa | 1040 | –
353.15 K, 2500 kPa | 1042 | –
353.15 K, 5000 kPa | 1043 | –
353.15 K, 7500 kPa | 1045 | –
353.15 K, 10000 kPa | 1047 | –
353.15 K, 12500 kPa | 1049 | –
353.15 K, 15000 kPa | 1050 | –
353.15 K, 17500 kPa | 1052 | –
353.15 K, 20000 kPa | 1054 | –
353.15 K, 22500 kPa | 1055 | –
353.15 K, 25000 kPa | 1057 | –
353.15 K, 27500 kPa | 1059 | –
353.15 K, 30000 kPa | 1060 | –
353.15 K, 32500 kPa | 1062 | –
353.15 K, 35000 kPa | 1063 | –
353.15 K, 37500 kPa | 1065 | –
373.15 K, 500 kPa | 1020 | –
373.15 K, 1000 kPa | 1020 | –
373.15 K, 2500 kPa | 1022 | –
373.15 K, 5000 kPa | 1024 | –
373.15 K, 7500 kPa | 1026 | –
373.15 K, 10000 kPa | 1027 | –
373.15 K, 12500 kPa | 1029 | –
373.15 K, 15000 kPa | 1031 | –
373.15 K, 17500 kPa | 1033 | –
373.15 K, 20000 kPa | 1035 | –
373.15 K, 22500 kPa | 1037 | –
373.15 K, 25000 kPa | 1038 | –
373.15 K, 27500 kPa | 1040 | –
373.15 K, 30000 kPa | 1042 | –
373.15 K, 32500 kPa | 1044 | –
373.15 K, 35000 kPa | 1045 | –
373.15 K, 37500 kPa | 1047 | –
393.15 K, 500 kPa | 999 | –
393.15 K, 1000 kPa | 1000 | –
393.15 K, 2500 kPa | 1001 | –
393.15 K, 5000 kPa | 1004 | –
393.15 K, 7500 kPa | 1006 | –
393.15 K, 10000 kPa | 1008 | –
393.15 K, 12500 kPa | 1010 | –
393.15 K, 15000 kPa | 1012 | –
393.15 K, 17500 kPa | 1014 | –
393.15 K, 20000 kPa | 1016 | –
393.15 K, 22500 kPa | 1018 | –
393.15 K, 25000 kPa | 1020 | –
393.15 K, 27500 kPa | 1022 | –
393.15 K, 30000 kPa | 1024 | –
393.15 K, 32500 kPa | 1025 | –
393.15 K, 35000 kPa | 1027 | –
393.15 K, 37500 kPa | 1029 | –
413.15 K, 500 kPa | 979 | –
413.15 K, 1000 kPa | 979 | –
413.15 K, 2500 kPa | 981 | –
413.15 K, 5000 kPa | 983 | –
413.15 K, 7500 kPa | 986 | –
413.15 K, 10000 kPa | 988 | –
413.15 K, 12500 kPa | 990 | –
413.15 K, 15000 kPa | 993 | –
413.15 K, 17500 kPa | 995 | –
413.15 K, 20000 kPa | 997 | –
413.15 K, 22500 kPa | 999 | –
413.15 K, 25000 kPa | 1001 | –
413.15 K, 27500 kPa | 1003 | –
413.15 K, 30000 kPa | 1005 | –
413.15 K, 32500 kPa | 1007 | –
413.15 K, 35000 kPa | 1009 | –
413.15 K, 37500 kPa | 1011 | –
433.15 K, 500 kPa | 958 | –
433.15 K, 1000 kPa | 958 | –
433.15 K, 2500 kPa | 960 | –
433.15 K, 5000 kPa | 963 | –
433.15 K, 7500 kPa | 966 | –
433.15 K, 10000 kPa | 968 | –
433.15 K, 12500 kPa | 971 | –
433.15 K, 15000 kPa | 973 | –
433.15 K, 17500 kPa | 976 | –
433.15 K, 20000 kPa | 978 | –
433.15 K, 22500 kPa | 980 | –
433.15 K, 25000 kPa | 983 | –
433.15 K, 27500 kPa | 985 | –
433.15 K, 30000 kPa | 987 | –
433.15 K, 32500 kPa | 989 | –
433.15 K, 35000 kPa | 991 | –
433.15 K, 37500 kPa | 993 | –
453.15 K, 500 kPa | 936 | –
453.15 K, 1000 kPa | 937 | –
453.15 K, 2500 kPa | 939 | –
453.15 K, 5000 kPa | 942 | –
453.15 K, 7500 kPa | 945 | –
453.15 K, 10000 kPa | 948 | –
453.15 K, 12500 kPa | 951 | –
453.15 K, 15000 kPa | 953 | –
453.15 K, 17500 kPa | 956 | –
453.15 K, 20000 kPa | 959 | –
453.15 K, 22500 kPa | 961 | –
453.15 K, 25000 kPa | 964 | –
453.15 K, 27500 kPa | 966 | –
453.15 K, 30000 kPa | 969 | –
453.15 K, 32500 kPa | 971 | –
453.15 K, 35000 kPa | 973 | –
453.15 K, 37500 kPa | 976 | –
473.15 K, 500 kPa | 914 | –
473.15 K, 1000 kPa | 915 | –
473.15 K, 2500 kPa | 917 | –
473.15 K, 5000 kPa | 921 | –
473.15 K, 7500 kPa | 924 | –
473.15 K, 10000 kPa | 927 | –
473.15 K, 12500 kPa | 930 | –
473.15 K, 15000 kPa | 933 | –
473.15 K, 17500 kPa | 936 | –
473.15 K, 20000 kPa | 939 | –
473.15 K, 22500 kPa | 942 | –
473.15 K, 25000 kPa | 945 | –
473.15 K, 27500 kPa | 948 | –
473.15 K, 30000 kPa | 950 | –
473.15 K, 32500 kPa | 953 | –
473.15 K, 35000 kPa | 955 | –
473.15 K, 37500 kPa | 958 | –
